The values that follow come from publication PMC9611727, “Optimization of a Novel Mandelamide-Derived Pyrrolopyrimidine Series of PERK Inhibitors” (Pharmaceutics, 2022).

Assay in all cases: scanMAX kinase panel
What all share (assay type): binding
Holding throughout (details): read-out: % Control; for remaining binding at 1 µM: 1000 nM

One assay deals with T1, AXL (Homo sapiens, UniProt P30530).
T1 construct: purchased DiscoverX scanMAX
T1 sequence (P30530 26-894): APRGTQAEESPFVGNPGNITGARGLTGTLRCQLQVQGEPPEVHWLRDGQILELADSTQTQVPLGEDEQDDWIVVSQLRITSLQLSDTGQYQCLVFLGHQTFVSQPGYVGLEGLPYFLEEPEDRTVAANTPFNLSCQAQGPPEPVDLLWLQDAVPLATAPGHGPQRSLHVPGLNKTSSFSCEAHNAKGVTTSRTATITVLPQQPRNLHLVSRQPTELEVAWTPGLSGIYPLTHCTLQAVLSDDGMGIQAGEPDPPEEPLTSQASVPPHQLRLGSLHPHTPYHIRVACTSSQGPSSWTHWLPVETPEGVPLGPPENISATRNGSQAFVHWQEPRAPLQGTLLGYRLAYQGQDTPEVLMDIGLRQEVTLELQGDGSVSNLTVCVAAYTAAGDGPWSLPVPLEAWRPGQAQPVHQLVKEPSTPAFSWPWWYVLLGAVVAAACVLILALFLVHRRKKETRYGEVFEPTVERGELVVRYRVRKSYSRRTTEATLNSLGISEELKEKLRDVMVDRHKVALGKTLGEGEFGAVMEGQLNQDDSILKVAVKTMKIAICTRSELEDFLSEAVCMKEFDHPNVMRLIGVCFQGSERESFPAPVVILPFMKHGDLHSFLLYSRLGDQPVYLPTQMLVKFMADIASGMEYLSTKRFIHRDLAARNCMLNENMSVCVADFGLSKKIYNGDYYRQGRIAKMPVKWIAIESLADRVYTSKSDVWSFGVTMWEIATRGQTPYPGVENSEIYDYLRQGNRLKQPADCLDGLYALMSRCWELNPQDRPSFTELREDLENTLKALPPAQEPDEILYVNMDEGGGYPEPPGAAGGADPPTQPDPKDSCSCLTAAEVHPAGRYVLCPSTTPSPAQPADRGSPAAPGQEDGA
The text has this:
(§1) Supplemental Table S2. scanMAXSM Kinome Assay Results. Complete tabulated data of all 468 kinases from the panel, including
(§2) 403 wild-type and 65 mutant isoforms. […] Cmpd 11 and Cmpd 24

In a further assay the target is T2, MAP3K15 (Homo sapiens, UniProt Q6ZN16).
T2 construct: purchased DiscoverX scanMAX
T2 sequence (Q6ZN16 1-1313): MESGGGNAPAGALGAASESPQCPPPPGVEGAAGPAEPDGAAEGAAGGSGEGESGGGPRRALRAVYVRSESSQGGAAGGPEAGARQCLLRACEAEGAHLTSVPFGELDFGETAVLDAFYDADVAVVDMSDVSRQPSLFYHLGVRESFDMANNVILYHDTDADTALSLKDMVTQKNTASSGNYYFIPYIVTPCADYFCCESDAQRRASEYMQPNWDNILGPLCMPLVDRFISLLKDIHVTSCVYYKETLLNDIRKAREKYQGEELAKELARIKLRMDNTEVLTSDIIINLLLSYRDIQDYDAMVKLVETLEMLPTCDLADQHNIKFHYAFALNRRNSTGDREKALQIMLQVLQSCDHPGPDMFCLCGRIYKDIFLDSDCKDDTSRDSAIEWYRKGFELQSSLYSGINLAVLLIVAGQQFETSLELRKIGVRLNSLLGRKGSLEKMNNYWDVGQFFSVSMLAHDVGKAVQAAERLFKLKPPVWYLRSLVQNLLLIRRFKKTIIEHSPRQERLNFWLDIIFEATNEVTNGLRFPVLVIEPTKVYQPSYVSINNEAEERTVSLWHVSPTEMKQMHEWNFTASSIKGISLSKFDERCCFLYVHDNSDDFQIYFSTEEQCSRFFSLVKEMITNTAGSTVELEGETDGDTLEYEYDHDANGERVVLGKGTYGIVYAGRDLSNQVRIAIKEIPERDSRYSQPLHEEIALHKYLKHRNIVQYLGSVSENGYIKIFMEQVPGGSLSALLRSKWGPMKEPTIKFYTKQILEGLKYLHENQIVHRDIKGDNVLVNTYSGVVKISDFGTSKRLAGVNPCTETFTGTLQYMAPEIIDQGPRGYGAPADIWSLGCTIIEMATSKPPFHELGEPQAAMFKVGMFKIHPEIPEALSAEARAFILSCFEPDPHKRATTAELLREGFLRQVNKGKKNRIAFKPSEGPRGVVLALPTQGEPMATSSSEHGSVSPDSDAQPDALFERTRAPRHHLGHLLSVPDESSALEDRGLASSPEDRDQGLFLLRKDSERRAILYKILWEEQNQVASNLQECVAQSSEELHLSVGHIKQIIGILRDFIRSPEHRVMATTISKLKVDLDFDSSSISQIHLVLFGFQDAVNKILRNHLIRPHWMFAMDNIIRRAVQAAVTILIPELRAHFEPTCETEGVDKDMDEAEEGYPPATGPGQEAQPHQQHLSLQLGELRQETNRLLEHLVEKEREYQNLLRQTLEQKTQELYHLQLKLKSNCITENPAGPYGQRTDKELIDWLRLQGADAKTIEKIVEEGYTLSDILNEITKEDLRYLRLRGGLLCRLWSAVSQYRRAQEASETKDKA
Text: as §1, §2

The next assay has as its target T3, TIE2 (Homo sapiens, UniProt Q02763).
T3 construct: purchased DiscoverX (scanMAX panel)
Text: as §1, §2

The target of another assay is T4, VRK2 (Homo sapiens, UniProt Q86Y07).
T4 construct: purchased DiscoverX (scanMAX panel)
Text: as §1, §2

T4 sequence (Q86Y07 whole entry): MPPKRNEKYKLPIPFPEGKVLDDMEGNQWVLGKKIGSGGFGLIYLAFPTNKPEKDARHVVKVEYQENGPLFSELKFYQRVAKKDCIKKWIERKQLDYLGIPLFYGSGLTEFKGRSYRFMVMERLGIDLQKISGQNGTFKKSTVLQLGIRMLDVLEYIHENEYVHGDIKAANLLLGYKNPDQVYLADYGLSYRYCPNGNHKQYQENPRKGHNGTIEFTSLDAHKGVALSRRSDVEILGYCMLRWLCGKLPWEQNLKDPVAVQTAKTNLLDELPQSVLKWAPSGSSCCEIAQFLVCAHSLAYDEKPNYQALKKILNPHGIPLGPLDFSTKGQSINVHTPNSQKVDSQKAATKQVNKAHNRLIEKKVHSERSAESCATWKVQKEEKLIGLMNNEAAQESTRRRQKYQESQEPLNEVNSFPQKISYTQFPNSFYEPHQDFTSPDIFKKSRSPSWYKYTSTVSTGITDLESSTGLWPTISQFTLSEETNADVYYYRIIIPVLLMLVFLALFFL
T3 sequence (Q02763 23-1124): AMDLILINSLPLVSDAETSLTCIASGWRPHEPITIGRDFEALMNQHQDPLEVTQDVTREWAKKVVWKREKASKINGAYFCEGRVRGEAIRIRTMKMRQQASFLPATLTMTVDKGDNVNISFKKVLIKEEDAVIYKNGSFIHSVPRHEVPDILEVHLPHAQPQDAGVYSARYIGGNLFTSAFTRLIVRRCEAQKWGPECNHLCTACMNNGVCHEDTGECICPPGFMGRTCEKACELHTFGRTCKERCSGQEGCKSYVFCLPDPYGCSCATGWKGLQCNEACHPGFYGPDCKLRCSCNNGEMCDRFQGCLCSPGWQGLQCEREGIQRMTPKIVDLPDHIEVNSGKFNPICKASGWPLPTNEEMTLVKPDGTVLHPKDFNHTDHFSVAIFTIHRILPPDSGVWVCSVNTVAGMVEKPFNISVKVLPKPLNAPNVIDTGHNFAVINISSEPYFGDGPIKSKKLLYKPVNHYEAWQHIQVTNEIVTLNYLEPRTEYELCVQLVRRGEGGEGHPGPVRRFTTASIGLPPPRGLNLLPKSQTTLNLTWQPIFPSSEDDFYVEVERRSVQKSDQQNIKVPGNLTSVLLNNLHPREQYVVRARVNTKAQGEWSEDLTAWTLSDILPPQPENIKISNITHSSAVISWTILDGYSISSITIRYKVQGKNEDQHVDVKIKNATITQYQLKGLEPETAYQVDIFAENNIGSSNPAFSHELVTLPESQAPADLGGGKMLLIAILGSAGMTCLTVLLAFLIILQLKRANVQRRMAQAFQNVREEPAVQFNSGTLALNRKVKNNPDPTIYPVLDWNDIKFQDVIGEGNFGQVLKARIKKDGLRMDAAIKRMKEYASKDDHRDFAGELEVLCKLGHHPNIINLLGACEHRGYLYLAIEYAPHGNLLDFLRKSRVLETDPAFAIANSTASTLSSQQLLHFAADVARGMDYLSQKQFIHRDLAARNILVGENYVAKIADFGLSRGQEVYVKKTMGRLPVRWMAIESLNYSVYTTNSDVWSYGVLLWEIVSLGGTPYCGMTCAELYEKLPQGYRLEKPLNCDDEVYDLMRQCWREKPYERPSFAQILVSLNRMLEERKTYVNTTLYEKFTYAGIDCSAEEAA

As to `Cc1cc(NC(=O)[C@H](O)c2cccc(F)c2)ccc1-c1cn(C)c2ncnc(N)c12` [Compound 11, (R)-N-(4-(4-amino-7-methyl-7H-pyrrolo[2,3-d]pyrimidin-5-yl)-3-methylphenyl)-2-(3-fluorophenyl)-2-hydroxy acetamide], the remaining binding at 1 µM at AXL was determined as 56%; on MAP3K15 it was 29%; on TIE2, 14%; on VRK2 it was 26%.
For `Cc1nc(N)c2c(-c3ccc(NC(=O)[C@H](O)c4cccc(F)c4)cc3C)cn(C)c2n1` [Compound 24], in that order: 100%, 82%, 100% and 100%.
Turning to `Cc1nc(N)c2c(-c3ccc(NC(=O)[C@H](O)c4cccc(C(F)(F)F)c4)cc3C)cn(C)c2n1` [Compound 26], the remaining binding at 0.1 µM at AXL (100 nM) came to 99%; on MAP3K15 (100 nM) it was 100%; on TIE2 (100 nM), 100%; on VRK2 (100 nM), 94%. The remaining binding at 1 µM stood at 0.7% on AXL, 99% on MAP3K15, 65% on TIE2 and 78% at VRK2.
